“And” between values parts separate entries of the source, which are not always exact repeats. Equal entries are not always repeated. Inconclusive results and toxic doses are left out. How the source made its calls: active means survival T/C of 150% or more; inactive means T/C below 125% in these data.
Tested on: P388 leukemia ip, CD2F1 mice, survival T/C
Assay: NCI In Vivo Anticancer Drug Screen. Data for tumor model P388 Leukemia (intraperitoneal) in CD2F1 (CDF1) mice
Conditions: endpoint: median survival time, higher = longer survival
Method in brief: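 Mice carrying the transplanted tumor received test compound or vehicle. Survival was recorded in each group, and the value is the treated-group measurement divided by that of the vehicle-treated control group.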

[1] = dose: 100.0 mg/kg/injection, schedule: Q01DX009 (ip), vehicle: saline
[2] = dose: 50.0 mg/kg/injection, schedule: Q01DX005 (ip), vehicle: saline with Tween-80
[3] = dose: 100.0 mg/kg/injection, schedule: Q01DX005 (ip), vehicle: saline with Tween-80
[4] = dose: 200.0 mg/kg/injection, schedule: Q01DX005 (ip), vehicle: saline with Tween-80
[5] = dose: 60.0 mg/kg/injection, schedule: Q01DX005 (ip), vehicle: saline with Tween-80
[6] = dose: 120.0 mg/kg/injection, schedule: Q01DX005 (ip), vehicle: saline with Tween-80
[7] = dose: 60.0 mg/kg/injection, schedule: Q01DX005 (ip), vehicle: Klucel (hydroxypropylcellulose) (HPC)
[8] = dose: 100.0 mg/kg/injection, schedule: Q04DX002 (ip), vehicle: saline with Tween-80
[9] = dose: 120.0 mg/kg/injection, schedule: Q01DX005 (ip), vehicle: Klucel (hydroxypropylcellulose) (HPC)
[10] = dose: 200.0 mg/kg/injection, schedule: Q04DX002 (ip), vehicle: saline with Tween-80
[11] = dose: 400.0 mg/kg/injection, schedule: Q04DX002 (ip), vehicle: saline with Tween-80
[12] = dose: 100.0 mg/kg/injection, schedule: Q01DX001 (ip), vehicle: Klucel (hydroxypropylcellulose) (HPC)
[13] = dose: 200.0 mg/kg/injection, schedule: Q01DX001 (ip), vehicle: Klucel (hydroxypropylcellulose) (HPC)
[14] = dose: 50.0 mg/kg/injection, schedule: Q01DX009 (ip), vehicle: Klucel (hydroxypropylcellulose) (HPC)
[15] = dose: 100.0 mg/kg/injection, schedule: Q01DX009 (ip), vehicle: Klucel (hydroxypropylcellulose) (HPC)
[16] = dose: 200.0 mg/kg/injection, schedule: Q01DX009 (ip), vehicle: Klucel (hydroxypropylcellulose) (HPC)

Measured: T/C

O=C(O)CCc1cccc(O)c1
inactive: dose: 25.0 mg/kg/injection, schedule: Q01DX009 (ip), vehicle: saline 110 % of control | dose: 50.0 mg/kg/injection, schedule: Q01DX009 (ip), vehicle: saline 101 % of control | [1] 103 % of control | dose: 200.0 mg/kg/injection, schedule: Q01DX009 (ip), vehicle: saline 95 % of control

CC(c1ccccc1)C1CC1 (stereo not drawn)
inactive: dose: 50.0 mg/kg/injection, schedule: Q01DX009 (ip), vehicle: saline with Tween-80 103 % of control | dose: 100.0 mg/kg/injection, schedule: Q01DX009 (ip), vehicle: saline with Tween-80 107 % of control | dose: 200.0 mg/kg/injection, schedule: Q01DX009 (ip), vehicle: saline with Tween-80 98 % of control

CCCCCCCCCCCCCCCCCC(=O)NC1=C(Cl)C(=O)c2ccccc2C1=O
inactive: [2] 94 % of control | [3] 94 % of control | [4] 91 % of control

CCOP(=O)(OCC)C(C#N)OC(C)(C)C (stereo not drawn)
inactive: [5] 109 % of control | [6] 93 % of control

O=S1(=O)NC(=NC2CCCCC2)c2ccccc21
inactive: [2] 105 % of control | [3] 105 % of control | [4] 99 % of control

Cc1nnc2c3nccn3ccn12
inactive: dose: 12.5 mg/kg/injection, schedule: Q01DX001 (ip), vehicle: saline with Tween-80 106 % of control | dose: 25.0 mg/kg/injection, schedule: Q01DX001 (ip), vehicle: saline with Tween-80 101 % of control | dose: 50.0 mg/kg/injection, schedule: Q01DX001 (ip), vehicle: saline with Tween-80 106 % of control

CC1=C2C3OC(=O)C(C)C3CCC2(C)C=C(Br)C1=O (stereo not drawn)
inactive: [7] 106 % of control | [8] 101 % of control | [9] 98 % of control | [10] 97 % of control | dose: 240.0 mg/kg/injection, schedule: Q01DX005 (ip), vehicle: Klucel (hydroxypropylcellulose) (HPC) 104 % of control | [11] 97 % of control

Cc1ccc(-c2nc3sccn3c2C=O)cc1
inactive: [12] 95 % of control | [13] 96 % of control | dose: 400.0 mg/kg/injection, schedule: Q01DX001 (ip), vehicle: Klucel (hydroxypropylcellulose) (HPC) 96 % of control

CC1=C[P+](c2ccccc2)(c2ccccc2)c2ccccc2O1
inactive: dose: 1.56 mg/kg/injection, schedule: Q01DX005 (ip), vehicle: Klucel (hydroxypropylcellulose) (HPC) 96 % of control | dose: 3.12 mg/kg/injection, schedule: Q01DX005 (ip), vehicle: Klucel (hydroxypropylcellulose) (HPC) 109 % of control | dose: 6.25 mg/kg/injection, schedule: Q01DX005 (ip), vehicle: Klucel (hydroxypropylcellulose) (HPC) 110 % of control

C=C(C)C(=O)Nc1ccc(-n2[nH]c(C)c(N=Nc3ccc(N(C)C)cc3)c2=O)cc1
inactive: [2] 98 % of control | [3] 96 % of control | [4] 100 % of control

COc1ccc2c(c1)CC1c3c(cc4c(c3-2)OCO4)CCN1C (stereo not drawn)
inactive: dose: 30.0 mg/kg/injection, schedule: Q01DX005 (ip), vehicle: Klucel (hydroxypropylcellulose) (HPC) 93 % of control | [7] 90 % of control | [9] 90 % of control

[CH3][Sn]([CH3])([O]C(=O)CNC(=O)c1ccccc1)[O]C(=O)CNC(=O)c1ccccc1
inactive: dose: 0.79 mg/kg/injection, schedule: Q01DX001 (ip), vehicle: Klucel (hydroxypropylcellulose) (HPC) 97 % of control | dose: 1.56 mg/kg/injection, schedule: Q01DX001 (ip), vehicle: Klucel (hydroxypropylcellulose) (HPC) 93 % of control | dose: 3.12 mg/kg/injection, schedule: Q01DX001 (ip), vehicle: Klucel (hydroxypropylcellulose) (HPC) 100 % of control

N=[N+]=CC(=O)CC(N)C(=O)O (stereo not drawn)
inactive: [1] 117 % of control | dose: 100.0 mg/kg/injection, schedule: Q04DX003 (ip), vehicle: saline 92 % of control | dose: 200.0 mg/kg/injection, schedule: Q04DX003 (ip), vehicle: saline 100 % of control | dose: 400.0 mg/kg/injection, schedule: Q04DX003 (ip), vehicle: saline 100 % of control

COc1ccc2c(c1)[C@@]13CCCC[C@H]1[C@@H](C2)[N+](C)=CC3=NO
inactive: [7] 105 % of control

C(=N\N1CCCCCC1)/c1c2ccccc2cc2ccccc12
inactive: dose: 50.0 mg/kg/injection, schedule: Q01DX005 (ip), vehicle: Klucel + Tween-80 89 % of control | dose: 100.0 mg/kg/injection, schedule: Q01DX005 (ip), vehicle: Klucel + Tween-80 90 % of control | dose: 200.0 mg/kg/injection, schedule: Q01DX005 (ip), vehicle: Klucel + Tween-80 92 % of control

CC(=O)C1C(=O)C(=O)N(Cc2ccccc2)C1=O (stereo not drawn)
inactive: [14] 96 % of control | [15] 114 % of control | [16] 100 % of control

CN1CC(=O)NC2C=CN(Cc3c(Cl)cccc3Cl)C=C2C1=O (stereo not drawn)
inactive: [5] 89 % of control and 90 % of control | [6] 88 % of control | dose: 240.0 mg/kg/injection, schedule: Q01DX005 (ip), vehicle: saline with Tween-80 87 % of control and 90 % of control

Cc1ccc2nc(N/N=C/c3cccc(C)n3)cc(C)c2c1
inactive: dose: 12.5 mg/kg/injection, schedule: Q01DX005 (ip), vehicle: saline with Tween-80 100 % of control | dose: 25.0 mg/kg/injection, schedule: Q01DX005 (ip), vehicle: saline with Tween-80 90 % of control | [2] 100 % of control and 93 % of control | [3] 100 % of control

CCOP(=O)(N=Nc1cccnc1)OCC
inactive: dose: 1.56 mg/kg/injection, schedule: Q01DX009 (ip), vehicle: water 107 % of control | dose: 3.12 mg/kg/injection, schedule: Q01DX009 (ip), vehicle: water 101 % of control | dose: 6.25 mg/kg/injection, schedule: Q01DX005 (ip), vehicle: water 100 % of control | dose: 6.25 mg/kg/injection, schedule: Q01DX009 (ip), vehicle: water 101 % of control | dose: 12.5 mg/kg/injection, schedule: Q01DX005 (ip), vehicle: water 96 % of control | dose: 12.5 mg/kg/injection, schedule: Q01DX009 (ip), vehicle: water 112 % of control | dose: 25.0 mg/kg/injection, schedule: Q01DX005 (ip), vehicle: water 102 % of control | dose: 25.0 mg/kg/injection, schedule: Q01DX009 (ip), vehicle: water 117 % of control | dose: 50.0 mg/kg/injection, schedule: Q01DX005 (ip), vehicle: water 103 % of control | dose: 100.0 mg/kg/injection, schedule: Q01DX005 (ip), vehicle: water 103 % of control

CN(C)c1ccc2nc3ccc(=N)cc-3sc2c1
inactive: dose: 60.0 mg/kg/injection, schedule: Q01DX005 (ip), vehicle: saline 114 % of control | dose: 120.0 mg/kg/injection, schedule: Q01DX005 (ip), vehicle: saline 118 % of control

C[C@]12C=CC(=O)C=C1CC[C@@H]1[C@@H]2[C@@H](O)C[C@@]2(C)[C@H]1CC[C@]2(O)C(=O)COC(=O)CCC1CCCC1
inactive: dose: 100.0 mg/kg/injection, schedule: Q04DX003 (ip), vehicle: saline with Tween-80 104 % of control | dose: 200.0 mg/kg/injection, schedule: Q04DX003 (ip), vehicle: saline with Tween-80 100 % of control | dose: 400.0 mg/kg/injection, schedule: Q04DX003 (ip), vehicle: saline with Tween-80 91 % of control

CCCCOC(=O)NCNC(=O)OCCCC
inactive: [14] 99 % of control | [15] 100 % of control | [16] 94 % of control

COc1cc(OC2OC(CO)C(O)C(O)C2O)ccc1/C=C\C(=O)c1ccc(O)cc1 (stereo not drawn)
inactive: [8] 96 % of control | [10] 90 % of control | [11] 91 % of control

CC/C(=N\NS(=O)(=O)c1ccc(C)cc1)c1ccc(Br)cc1
inactive: dose: 100.0 mg/kg/injection, schedule: Q04DX002 (ip), vehicle: saline 100 % of control | dose: 200.0 mg/kg/injection, schedule: Q04DX002 (ip), vehicle: saline 105 % of control | dose: 400.0 mg/kg/injection, schedule: Q04DX002 (ip), vehicle: saline 96 % of control

CCCCNC(=S)NC(c1ccc(OC)cc1)C(CC)c1ccc(OC)cc1 (stereo not drawn)
inactive: [8] 90 % of control | [10] 88 % of control | [11] 90 % of control

CC(C)N1COCO[C@H]2CCC[C@@H]21
inactive: dose: 25.0 mg/kg/injection, schedule: Q01DX005 (ip), vehicle: Klucel (hydroxypropylcellulose) (HPC) 113 % of control | [12] 93 % of control | dose: 100.0 mg/kg/injection, schedule: Q01DX005 (ip), vehicle: Klucel (hydroxypropylcellulose) (HPC) 113 % of control | [13] 90 % of control
